# From ChEMBL document CHEMBL1135763, “Discovery of aminothiazole inhibitors of cyclin-dependent kinase 2: synthesis, X-ray crystallographic analysis, and biological activities” (J Med Chem, 2002)
# Legend:
# [1] = tested on: MIP; assay: Inhibition of MIP human colon carcinoma cell line; assay type: functional, cell-based
# [2] = target: T1, Tyrosine-protein kinase ITK/TSK (Homo sapiens, UniProt Q08881); assay: Inhibition of tyrosine kinase EMT
# T1 sequence (Q08881 whole entry): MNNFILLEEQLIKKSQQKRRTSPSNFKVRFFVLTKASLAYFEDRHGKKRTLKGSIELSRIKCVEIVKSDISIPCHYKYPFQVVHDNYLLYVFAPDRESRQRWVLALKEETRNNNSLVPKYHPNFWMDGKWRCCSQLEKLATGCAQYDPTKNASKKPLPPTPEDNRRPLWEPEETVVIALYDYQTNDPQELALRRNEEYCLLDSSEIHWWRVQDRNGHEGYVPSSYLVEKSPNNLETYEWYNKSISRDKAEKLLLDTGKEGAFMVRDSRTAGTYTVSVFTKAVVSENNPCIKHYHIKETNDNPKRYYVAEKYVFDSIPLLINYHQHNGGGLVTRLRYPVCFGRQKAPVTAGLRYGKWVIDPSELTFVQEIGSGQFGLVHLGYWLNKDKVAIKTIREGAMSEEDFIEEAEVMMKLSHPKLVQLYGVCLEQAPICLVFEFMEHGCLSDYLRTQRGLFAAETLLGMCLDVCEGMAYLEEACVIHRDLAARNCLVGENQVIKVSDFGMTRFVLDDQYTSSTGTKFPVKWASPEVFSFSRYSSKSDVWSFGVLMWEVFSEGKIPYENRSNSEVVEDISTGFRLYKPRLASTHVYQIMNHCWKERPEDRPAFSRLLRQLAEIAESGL
# [3] = tested on: HS27; assay: Inhibition of Hs 27 human fibroblast cell proliferation; assay type: functional, cell-based
# [4] = target: Cyclin-dependent kinase 4/cyclin D1 (Homo sapiens, UniProt P11802); assay: Inhibitory activity against baculovirus expressed Cyclin dependent kinase 4-cyclinD1; assay type: protein-complex assay
# [5] = target: Cyclin-dependent kinase 2 (Homo sapiens) (UniProt P24941); assay: Percentage A2780 cells in G2/M after 24 hr r at 295 nM (IC90); assay type: functional, cell-based
# [6] = target: Cyclin-dependent kinase 2/cyclin E (Homo sapiens, UniProt P24941); assay: Inhibitory activity against baculovirus expressed Cyclin dependent kinase 2-cyclinE; assay type: protein-complex assay
# [7] = tested on: HCT-116; assay: Inhibition of HCT116 / VP35 human colon carcinoma cell proliferation; assay type: functional, cell-based
# [8] = tested on: A2780; assay: Inhibition of A2780 / DDP-R human ovarian carcinoma cell proliferation; assay type: functional, cell-based
# [9] = tested on: MLF; assay: Inhibition of MLF mouse lung fibroblast cell proliferation; assay type: functional, cell-based
# [10] = tested on: HCT-116; assay: Inhibition of HCT116 human colon carcinoma cell proliferation; assay type: functional, cell-based
# [11] = tested on: HL-60; assay: Inhibition of HL60 human leukemia cell proliferation; assay type: functional, cell-based
# [12] = target: Cyclin-dependent kinase 2 (Homo sapiens) (UniProt P24941); assay: Percentage A2780 cells in S-phase after 24 hr r at 295 nM (IC90); assay type: functional, cell-based
# [13] = tested on: CCRF-CEM; assay: Inhibition of CCRF-CEM human leukemia cell proliferation; assay type: functional, cell-based
# [14] = tested on: A2780; assay: Inhibition of A2780 / DDP-S human ovarian carcinoma cell proliferation; assay type: functional, cell-based
# [15] = target: Cyclin-dependent kinase 1/cyclin B (Homo sapiens, UniProt P06493); assay: Inhibitory activity against baculovirus expressed Cyclin dependent kinase 1-cyclinB; assay type: protein-complex assay
# [16] = tested on: A2780; assay: Inhibition of A2780 / TAX-S human ovarian carcinoma cell proliferation; assay type: functional, cell-based
# [17] = tested on: K562; assay: Inhibition of K562 human leukemia cell proliferation; assay type: functional, cell-based
# [18] = tested on: OVCAR-3; assay: Inhibition of OVCAR-3 human ovarian carcinoma cell proliferation; assay type: functional, cell-based
# [19] = target: Cyclin-dependent kinase 2 (Homo sapiens) (UniProt P24941); assay: Percentage A2780 cells in G2/M after 24 hr r at 20 nM (IC50); assay type: functional, cell-based
# [20] = tested on: A2780; assay: Inhibition of A2780 / TAX-R human ovarian carcinoma cell proliferation; assay type: functional, cell-based
# [21] = Inhibition of Insulin-like growth factor receptor
# [22] = tested on: Caco-2; assay: Inhibition of CACO-2 human colon carcinoma cell proliferation; assay type: functional, cell-based
# [23] = tested on: A549; assay: Inhibition of A549 human lung carcinoma cell proliferation; assay type: functional, cell-based
# [24] = tested on: HCT-116; assay: Inhibition of HCT116 / VM46 human colon carcinoma cell proliferation; assay type: functional, cell-based
# [25] = tested on: A-431; assay: Inhibition of A431 human squamous cell carcinoma cell proliferation; assay type: functional, cell-based
# [26] = target: Receptor tyrosine-protein kinase erbB-2 (Homo sapiens, UniProt P04626); assay: Inhibition of HER2 kinase
# [27] = target: Cyclin-dependent kinase 2 (Homo sapiens) (UniProt P24941); assay: Percentage A2780 cells in S-phase after 24 hr r at 20 nM (IC50); assay type: functional, cell-based
# [28] = tested on: A2780; assay: cells; settings: Homo sapiens
# Description: Cytotoxic activity against A2780 human ovarian carcinoma cell line
# [29] = target: Cyclin-dependent kinase 2 (Homo sapiens) (UniProt P24941); assay: Apoptotic A2780 cells after 24 hr r at 20 nM (IC50); assay type: functional, cell-based
# [30] = tested on: ABAE; assay: Inhibition of ABAE […] cell proliferation; assay type: functional, cell-based
# [31] = target: Cyclin-dependent kinase 2 (Homo sapiens) (UniProt P24941); assay: Percentage A2780 cells in G1 after 24 hr r at 20 nM (IC50); assay type: functional, cell-based
# [32] = target: Cyclin-dependent kinase 2 (Homo sapiens) (UniProt P24941); assay: Percentage A2780 cells in G1 after 24 hr r at 295 nM (IC90); assay type: functional, cell-based
# [33] = target: Cyclin-dependent kinase 2 (Homo sapiens) (UniProt P24941); assay: Percentage A2780 cells in sub-G1 after 24 hr r at 20 nM (IC50); assay type: functional, cell-based
# [34] = target: Cyclin-dependent kinase 2 (Homo sapiens) (UniProt P24941); assay: Apoptotic A2780 cells after 24 hr r at 295 nM (IC90); assay type: functional, cell-based
# [35] = tested on: LX-1; assay: Inhibition of LX-1 human lung carcinoma proliferation; assay type: functional, cell-based
# [36] = tested on: M109; assay: Inhibition of M109 mouse lung carcinoma cell proliferation; assay type: functional, cell-based
# [37] = target: Cyclin-dependent kinase 2 (Homo sapiens) (UniProt P24941); assay: Percentage A2780 cells in sub-G1 after 24 hr r at 295 nM (IC90); assay type: functional, cell-based
# [38] = tested on: LS174T; assay: Inhibition of LS174T human colon carcinoma cell proliferation; assay type: functional, cell-based
# [39] = tested on: PC-3; assay: Inhibition of PC3 human prostate carcinoma cell proliferation; assay type: functional, cell-based
# [40] = tested on: SK-BR-3; assay: Inhibition of SKBR-3 human breast carcinoma cell proliferation; assay type: functional, cell-based
# [41] = tested on: MCF7; assay: Inhibition of MCF-7 human breast carcinoma cell proliferation; assay type: functional, cell-based
# Receptor tyrosine-protein kinase erbB-2, sequence (P04626 whole entry): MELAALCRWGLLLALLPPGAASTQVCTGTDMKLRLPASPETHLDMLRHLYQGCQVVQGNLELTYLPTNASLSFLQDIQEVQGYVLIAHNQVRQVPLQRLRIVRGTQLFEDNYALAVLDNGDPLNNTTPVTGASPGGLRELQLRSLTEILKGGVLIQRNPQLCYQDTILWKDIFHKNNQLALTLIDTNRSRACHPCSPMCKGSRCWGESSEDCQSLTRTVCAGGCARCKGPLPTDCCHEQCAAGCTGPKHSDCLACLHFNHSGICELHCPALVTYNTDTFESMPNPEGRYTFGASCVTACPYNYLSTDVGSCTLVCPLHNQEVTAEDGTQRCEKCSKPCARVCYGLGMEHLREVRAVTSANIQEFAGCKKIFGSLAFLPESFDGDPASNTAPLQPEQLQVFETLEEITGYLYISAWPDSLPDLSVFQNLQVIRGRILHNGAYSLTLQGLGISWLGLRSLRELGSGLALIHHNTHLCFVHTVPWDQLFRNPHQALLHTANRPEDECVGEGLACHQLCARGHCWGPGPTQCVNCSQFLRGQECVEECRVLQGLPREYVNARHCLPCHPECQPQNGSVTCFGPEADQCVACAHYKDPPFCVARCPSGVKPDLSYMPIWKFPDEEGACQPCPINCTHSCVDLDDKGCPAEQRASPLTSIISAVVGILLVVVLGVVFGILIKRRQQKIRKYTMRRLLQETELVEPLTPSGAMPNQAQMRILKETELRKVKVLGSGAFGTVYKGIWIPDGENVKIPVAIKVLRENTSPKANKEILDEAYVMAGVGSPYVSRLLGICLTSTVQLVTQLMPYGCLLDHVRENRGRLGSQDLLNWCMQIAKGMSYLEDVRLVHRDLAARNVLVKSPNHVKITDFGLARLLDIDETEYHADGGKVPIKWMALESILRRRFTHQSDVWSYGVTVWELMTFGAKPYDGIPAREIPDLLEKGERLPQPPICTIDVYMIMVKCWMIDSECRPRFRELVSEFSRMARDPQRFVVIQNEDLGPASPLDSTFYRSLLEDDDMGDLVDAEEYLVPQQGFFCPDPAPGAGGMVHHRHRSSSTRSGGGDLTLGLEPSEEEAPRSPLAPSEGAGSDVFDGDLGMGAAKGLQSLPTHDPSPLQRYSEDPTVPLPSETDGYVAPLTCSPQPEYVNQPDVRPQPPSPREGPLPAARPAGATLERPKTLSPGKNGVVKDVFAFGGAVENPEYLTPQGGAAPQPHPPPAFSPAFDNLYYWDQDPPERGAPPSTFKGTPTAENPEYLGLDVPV
# Cyclin-dependent kinase 4/cyclin D1, sequence (P11802 whole entry): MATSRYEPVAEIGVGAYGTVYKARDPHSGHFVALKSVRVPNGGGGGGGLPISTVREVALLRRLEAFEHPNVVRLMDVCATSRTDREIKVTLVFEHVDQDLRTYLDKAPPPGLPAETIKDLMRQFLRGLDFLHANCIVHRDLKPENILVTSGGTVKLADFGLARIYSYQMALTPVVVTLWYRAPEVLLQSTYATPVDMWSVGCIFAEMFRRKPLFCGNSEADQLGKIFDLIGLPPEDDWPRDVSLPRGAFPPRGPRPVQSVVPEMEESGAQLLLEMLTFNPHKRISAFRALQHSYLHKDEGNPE
# Cyclin-dependent kinase 4/cyclin D1, sequence (P24385 whole entry, further chain): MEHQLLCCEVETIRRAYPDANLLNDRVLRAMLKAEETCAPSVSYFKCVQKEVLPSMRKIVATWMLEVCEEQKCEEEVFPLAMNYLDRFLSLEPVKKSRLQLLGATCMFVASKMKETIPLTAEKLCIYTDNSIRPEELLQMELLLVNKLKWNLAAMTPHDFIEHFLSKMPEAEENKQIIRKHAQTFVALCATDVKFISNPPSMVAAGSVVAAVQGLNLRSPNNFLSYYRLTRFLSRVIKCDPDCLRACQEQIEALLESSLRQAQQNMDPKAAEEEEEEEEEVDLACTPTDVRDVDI
smiles,measurement,setting,value
CCc1cnc(CSc2cnc(NC(C)=O)s2)o1,IC50,[1],1790 nM
same,IC50,[2],> 10000 nM
same,IC50,[3],860 nM
same,IC50,[4],2250 nM
same,Cell cycle,[5],25%
same,IC50,[6],20 nM
same,IC50,[7],450 nM
same,IC50,[8],1420 nM
same,IC50,[9],1860 nM
same,IC50,[10],480 nM
same,IC50,[11],1400 nM
same,Cell cycle,[12],6%
same,IC50,[13],1450 nM
same,IC50,[14],1050 nM
same,IC50,[15],300 nM
same,IC50,[16],700 nM
same,IC50,[17],3230 nM
same,IC50,[18],1210 nM
same,Cell cycle,[19],29%
same,IC50,[20],1140 nM
same,IC50,[21],> 25000 nM
same,IC50,[22],1610 nM
same,IC50,[23],1870 nM
same,IC50,[24],530 nM
same,IC50,[25],960 nM
same,IC50,[26],> 25000 nM
same,Cell cycle,[27],11%
same,IC50,[28],1400 nM
same,Cell cycle,[29],6%
same,IC50,[30],1100 nM
same,Cell cycle,[31],58%
same,Cell cycle,[32],62%
same,Cell cycle,[33],2%
same,Cell cycle,[34],16%
same,IC50,[35],1900 nM
same,IC50,[36],2100 nM
same,Cell cycle,[37],7%
same,IC50,[38],1710 nM
same,IC50,[39],1060 nM
same,IC50,[40],1640 nM
same,IC50,[41],1470 nM
